In the METLIN SMRT retention time set (Domingo-Almenara et al. 2019):

Test: gradient 5% acetonitrile 3 min, to 50% in 2 min, to 85% in 15 min, held 3 min, 100 µL/min
Details: column: Zorbax Extend-C18 2.1 x 50 mm; eluents: water / acetonitrile, 0.1% formic acid
Method in brief: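 Values are retention times taken from adduct peaks that software picked and an analyst inspected. The pure standards were run as mixtures of ~100 molecules on HPLC linked to a quadrupole time-of-flight mass spectrometer, in positive and negative ionization mode. A Zorbax Extend-C18 column (2.1 × 50 mm, 1.8 μm) was used at 100 μL/min with water and acetonitrile, each including 0.1% formic acid.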

SMILES	RP-LC retention time [s]
COCc1nc2cccnc2n1C1CCN(C(=O)Nc2cc(Cl)c(OC)cc2OC)CC1	723
CCc1noc(NC(C)=O)c1-c1ccc(C)c(S(=O)(=O)NCc2ccccc2OC)c1	827
O=C1c2ccccc2C(=O)N1CCn1ncccc1=O	603
Cc1nn(CC(=O)Nc2ccccc2C(F)(F)F)c(C)c1[N+](=O)[O-]	792
CCOCCOC1CCN(S(=O)(=O)Cc2ccccc2F)CC1	877
CN1C(=O)C(C)(C)N(Cc2ccccc2)c2ccccc21	1080
Fc1ccccc1-c1ccc(CNCc2ccco2)o1	659
CC(C)(C)NC(=O)CCc1ccc2nc(-c3ccccc3)[nH]c2c1	632
Cc1ccc(-c2nc(CN3C(=O)C(O)(c4ccccc4)c4ccccc43)c(C)o2)cc1 (stereo not given)	1120
COC(=O)C1=CN(c2cccc(Cl)c2)c2ccc(F)cc2S1(=O)=O	895
COc1ccc(OC)c(NC(=O)N2CCC(OC3CCN(S(C)(=O)=O)CC3)CC2)c1	751
Cc1nnc(N2CCCC(C(=O)NCCC(C)C)C2)c2nn(-c3ccc(Cl)cc3)c(C)c12 (stereo not given)	783
CS(=O)(=O)Nc1cccc(NC(=O)Cc2csc(NC(=O)c3ccsc3)n2)c1	676
Fc1cc(F)cc(-c2nnc(Cc3nc(-c4ccccc4F)no3)o2)c1	1060
COc1ccc(-c2noc(C3CC(=O)N(c4ccc(Cl)cc4)C3)n2)c(OC)c1 (stereo not given)	928
O=C(CCCn1c(=O)c2cccn2c2ccc(Br)cc21)NCc1ccco1	864
Cn1cc(-c2nc(C(=O)Nc3ccc(F)cc3Cl)cs2)c2cccnc21	1210
COc1ccc(-c2noc(CN3N=NC4C(=O)N(c5ccc(OC)c(OC)c5)C(=O)C43)n2)c(OC)c1 (stereo not given)	800

Continued, values first:

RP-LC retention time [s]	SMILES
649	O=C(Nc1ccc(N2CCOCC2)cc1)C1CCCN(c2ccnc(-c3ccc(F)cc3)n2)C1 (stereo not given)
608	CCc1n[nH]c(CC2CCN(C(=O)C3(c4ccccc4)CC3)CC2)n1
936	CCN(CC)S(=O)(=O)c1ccc(-c2c(C)noc2C)cc1
794	Cc1ccccc1Cn1nc2c(S(=O)(=O)N3CCOCC3)cccn2c1=O
765	O=C(c1cccc(Cl)c1)N1CCC2(CC1)OCC(C(=O)N1CCCC1)N2C(=O)c1cccc(F)c1 (stereo not given)
707	COc1ccc(S(=O)(=O)N2CCCC(C(=O)NC(C)(C)C)C2)cc1OC (stereo not given)
835	CCN1c2ccc(F)cc2C(=O)NC12CCN(C(=O)c1ccccc1C)CC2
910	Cc1ccc(NC(=O)C2CCN(S(=O)(=O)c3ccc4c(c3)NC(=O)C(C)O4)CC2)cc1F (stereo not given)
914	O=C(NCc1csc(-c2ccccc2)n1)C1CCN(S(=O)(=O)c2ccccc2F)CC1
950	O=C(C1CCCN(c2nnc(-n3cccc3)s2)C1)N1CCN(c2ccc(F)cc2)CC1 (stereo not given)
742	O=C1NC2(CCN(C(=O)c3ccccc3F)CC2)Nc2c(Cl)cccc21
848	Cc1oc(C2CCN(C(=O)Cc3c(F)cccc3Cl)CC2)nc1C(=O)N1CCCC1
794	COc1ccc(C2Nn3c(C)nnc3SC2C(=O)N2CCCCCC2)cc1Br (stereo not given)
693	Cc1ccc(NC(=O)C(=O)NCC(c2ccc3c(c2)OCO3)N2CCOCC2)c(C)c1 (stereo not given)
1300	O=S(=O)(c1cc(-c2cc(C(F)(F)F)on2)cs1)N1CCN(c2cccc(Cl)c2)CC1
1050	Cc1cc(C)c(S(=O)(=O)N2CCC(C(=O)NCc3csc(-c4ccccc4)n3)CC2)cc1C
908	O=S(=O)(c1ccc2c(c1)OCCO2)N1CCCn2nc(-c3cccs3)cc2C1
